Active and inactive are the calls of the source.
What was measured:
[1] = A Cell Based Secondary Assay To Explore Cytotoxicity of Compounds that Sensitize Mycobacterium Tuberculosis to Beta-Lactam Antibiotics.; type: functional
Escherichia coli = test: microbe, parasite or virus in culture
[2] = Luminescence Cell-Based Dose Retest to Confirm Inhibitors of Cancer Stem Cells. [Related pubchem assays (depositor defined):AID2717, AID2721]; type: functional; settings: Homo sapiens
[3] = target: Dual specificity protein kinase CLK1 (Homo sapiens, UniProt P49759); test: inhibition of human CLK1 activity – biochemical, cherry-picked samples, selectivity assay for Dyrk1A inhibitor project, dose response (AID 588811)
Dual specificity protein kinase CLK1, sequence (P49759 whole entry): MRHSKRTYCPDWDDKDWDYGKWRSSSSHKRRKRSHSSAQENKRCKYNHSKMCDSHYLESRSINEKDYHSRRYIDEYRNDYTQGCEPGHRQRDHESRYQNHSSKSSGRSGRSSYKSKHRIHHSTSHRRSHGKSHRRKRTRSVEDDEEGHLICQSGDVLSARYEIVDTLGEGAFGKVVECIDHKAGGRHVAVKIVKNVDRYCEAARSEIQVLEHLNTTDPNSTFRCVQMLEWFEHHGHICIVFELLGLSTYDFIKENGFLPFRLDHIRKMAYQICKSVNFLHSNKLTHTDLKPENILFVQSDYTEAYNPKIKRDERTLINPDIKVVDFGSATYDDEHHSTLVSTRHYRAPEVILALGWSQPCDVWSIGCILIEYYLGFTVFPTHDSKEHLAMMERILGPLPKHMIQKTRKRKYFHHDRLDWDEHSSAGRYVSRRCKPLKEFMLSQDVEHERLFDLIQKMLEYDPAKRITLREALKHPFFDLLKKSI

[4] = viability loss in HeLa cells – cytotoxicity control for MgcRacGAP inhibitor project, dose response (AID 624300); type: functional
[5] = target: T1, Rac GTPase-activating protein 1 (Homo sapiens, UniProt Q9H0H5); test: blockers of MgcRacGAP-driven Rac1 GTP hydrolysis – biochemical, ADP Hunter fluorescence, primary and confirmatory, confirmation (AID 624330); type: functional
T1 sequence (Q9H0H5 whole entry): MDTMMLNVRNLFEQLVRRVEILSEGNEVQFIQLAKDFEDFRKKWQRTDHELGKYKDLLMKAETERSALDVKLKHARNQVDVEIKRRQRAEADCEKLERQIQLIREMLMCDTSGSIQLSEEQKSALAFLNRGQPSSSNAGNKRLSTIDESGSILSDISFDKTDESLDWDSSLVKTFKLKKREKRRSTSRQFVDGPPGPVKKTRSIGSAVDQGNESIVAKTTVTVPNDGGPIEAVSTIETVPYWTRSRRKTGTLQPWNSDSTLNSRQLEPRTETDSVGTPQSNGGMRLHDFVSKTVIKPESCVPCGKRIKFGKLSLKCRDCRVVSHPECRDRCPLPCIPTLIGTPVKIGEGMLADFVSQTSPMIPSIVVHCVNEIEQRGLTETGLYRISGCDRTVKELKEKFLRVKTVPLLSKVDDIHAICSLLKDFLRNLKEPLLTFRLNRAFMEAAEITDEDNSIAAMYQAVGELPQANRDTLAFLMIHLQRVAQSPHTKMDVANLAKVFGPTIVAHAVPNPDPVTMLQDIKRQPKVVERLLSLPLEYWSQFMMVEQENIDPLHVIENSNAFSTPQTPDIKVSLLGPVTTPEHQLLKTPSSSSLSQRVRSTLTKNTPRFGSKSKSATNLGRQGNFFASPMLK

[6] = target: Glucose-6-phosphate 1-dehydrogenase (Homo sapiens, UniProt P11413); test: inhibition of Homo sapiens G6PD, dose series – biochemical, fluorescence, selectivity assay for P. falciparum G6PD inhibitor project, dose response (AID 504792); type: functional
Glucose-6-phosphate 1-dehydrogenase, sequence (P11413 whole entry): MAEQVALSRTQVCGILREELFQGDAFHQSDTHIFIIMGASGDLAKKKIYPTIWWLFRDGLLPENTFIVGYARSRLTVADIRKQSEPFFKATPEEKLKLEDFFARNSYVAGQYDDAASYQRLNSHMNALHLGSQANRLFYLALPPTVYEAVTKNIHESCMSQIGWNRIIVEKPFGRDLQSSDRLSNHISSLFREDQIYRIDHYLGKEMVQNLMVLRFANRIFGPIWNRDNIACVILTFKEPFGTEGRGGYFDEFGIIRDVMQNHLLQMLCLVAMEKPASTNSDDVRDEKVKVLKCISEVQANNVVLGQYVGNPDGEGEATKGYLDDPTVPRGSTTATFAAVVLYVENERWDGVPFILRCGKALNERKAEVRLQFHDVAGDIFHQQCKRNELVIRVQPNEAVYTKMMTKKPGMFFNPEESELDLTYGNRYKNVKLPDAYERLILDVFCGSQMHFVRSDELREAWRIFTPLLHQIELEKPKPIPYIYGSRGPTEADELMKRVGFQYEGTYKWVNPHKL

Jurkat = test: blockers of NF-kB activation in T cells – Jurkat, luciferase reporter, luminescence, B- and T-cell, dose response (AID 489004); type: functional, cell-based; settings: Homo sapiens;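 note: NF-kB luciferase reporter Jurkat cells stimulated with PMA plus ionomycin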
[7] = target: T2, Microphthalmia-associated transcription factor (Homo sapiens, UniProt O75030); test: reducers of TRPM1 reporter luminescence, concentration series – cell-based, SK-MEL-5, cherry-picked, set 3, MITF inhibitor project, dose response (AID 493073); type: functional;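 note: SK-MEL-5 melanoma cells with luciferase driven by the MITF target TRPM1 promoter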
T2 sequence (O75030 whole entry): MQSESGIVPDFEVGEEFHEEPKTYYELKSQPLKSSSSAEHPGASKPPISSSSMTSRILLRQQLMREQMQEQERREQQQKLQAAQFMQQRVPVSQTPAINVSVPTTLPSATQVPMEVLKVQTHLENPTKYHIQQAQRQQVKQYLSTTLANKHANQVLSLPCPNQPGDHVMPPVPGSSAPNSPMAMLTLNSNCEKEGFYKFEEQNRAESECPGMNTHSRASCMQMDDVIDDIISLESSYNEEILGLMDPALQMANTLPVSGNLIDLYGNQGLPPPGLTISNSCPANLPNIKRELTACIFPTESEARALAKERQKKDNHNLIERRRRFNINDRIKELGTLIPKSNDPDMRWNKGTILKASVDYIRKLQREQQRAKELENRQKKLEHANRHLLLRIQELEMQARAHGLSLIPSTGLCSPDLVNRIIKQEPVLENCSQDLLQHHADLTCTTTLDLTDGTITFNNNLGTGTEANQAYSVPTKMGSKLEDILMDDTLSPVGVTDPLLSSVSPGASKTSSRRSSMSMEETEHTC

[8] = HEK-293T viability loss, compound-treated – cell-based, uHTS hits, cytotoxicity control for B/T-cell NF-kB inhibitor project, dose response (AID 489019); type: functional;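 note: IC50 reflects cytotoxicity as loss of cell viability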
Hexokinase-1 = Hexokinase-1 (Homo sapiens, UniProt P19367); test: SAR analysis of small molecule inhibitors of hexokinase domain containing I (HKDC1) in the hexokinase 1 selectivity assay. [Related pubchem assays (depositor defined):AID493160, AID493190]; type: functional
Hexokinase-1, sequence (P19367 whole entry, the tested form may be a part): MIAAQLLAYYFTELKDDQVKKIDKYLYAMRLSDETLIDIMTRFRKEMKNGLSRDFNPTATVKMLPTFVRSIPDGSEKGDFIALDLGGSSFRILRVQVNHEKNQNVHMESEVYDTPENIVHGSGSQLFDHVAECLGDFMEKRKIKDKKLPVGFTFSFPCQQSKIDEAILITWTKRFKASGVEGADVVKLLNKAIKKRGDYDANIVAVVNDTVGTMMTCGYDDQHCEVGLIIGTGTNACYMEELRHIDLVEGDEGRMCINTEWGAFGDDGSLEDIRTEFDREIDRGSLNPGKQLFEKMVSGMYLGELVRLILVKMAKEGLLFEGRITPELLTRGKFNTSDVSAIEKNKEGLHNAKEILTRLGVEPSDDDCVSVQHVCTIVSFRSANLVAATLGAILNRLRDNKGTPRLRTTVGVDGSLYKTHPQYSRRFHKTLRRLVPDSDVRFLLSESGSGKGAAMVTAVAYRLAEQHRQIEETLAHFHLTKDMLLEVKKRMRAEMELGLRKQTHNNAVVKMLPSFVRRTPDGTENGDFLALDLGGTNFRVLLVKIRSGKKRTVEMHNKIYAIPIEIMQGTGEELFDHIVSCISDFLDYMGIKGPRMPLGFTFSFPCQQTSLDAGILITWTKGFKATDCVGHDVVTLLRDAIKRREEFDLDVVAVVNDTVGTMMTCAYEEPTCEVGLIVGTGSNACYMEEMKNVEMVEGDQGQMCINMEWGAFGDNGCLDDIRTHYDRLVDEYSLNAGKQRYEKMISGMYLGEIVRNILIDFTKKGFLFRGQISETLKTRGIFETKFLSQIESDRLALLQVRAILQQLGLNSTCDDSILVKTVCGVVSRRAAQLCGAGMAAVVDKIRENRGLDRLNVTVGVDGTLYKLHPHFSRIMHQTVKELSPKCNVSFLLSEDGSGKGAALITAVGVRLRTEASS

Hexokinase HKDC1 = Hexokinase HKDC1 (Homo sapiens, UniProt Q2TB90); test: SAR analysis of small molecule inhibitors of hexokinase domain containing I (HKDC1). [Related pubchem assays (depositor defined):AID493160, AID493190]; type: functional
Hexokinase HKDC1, sequence (Q2TB90 whole entry, the tested form may be a part): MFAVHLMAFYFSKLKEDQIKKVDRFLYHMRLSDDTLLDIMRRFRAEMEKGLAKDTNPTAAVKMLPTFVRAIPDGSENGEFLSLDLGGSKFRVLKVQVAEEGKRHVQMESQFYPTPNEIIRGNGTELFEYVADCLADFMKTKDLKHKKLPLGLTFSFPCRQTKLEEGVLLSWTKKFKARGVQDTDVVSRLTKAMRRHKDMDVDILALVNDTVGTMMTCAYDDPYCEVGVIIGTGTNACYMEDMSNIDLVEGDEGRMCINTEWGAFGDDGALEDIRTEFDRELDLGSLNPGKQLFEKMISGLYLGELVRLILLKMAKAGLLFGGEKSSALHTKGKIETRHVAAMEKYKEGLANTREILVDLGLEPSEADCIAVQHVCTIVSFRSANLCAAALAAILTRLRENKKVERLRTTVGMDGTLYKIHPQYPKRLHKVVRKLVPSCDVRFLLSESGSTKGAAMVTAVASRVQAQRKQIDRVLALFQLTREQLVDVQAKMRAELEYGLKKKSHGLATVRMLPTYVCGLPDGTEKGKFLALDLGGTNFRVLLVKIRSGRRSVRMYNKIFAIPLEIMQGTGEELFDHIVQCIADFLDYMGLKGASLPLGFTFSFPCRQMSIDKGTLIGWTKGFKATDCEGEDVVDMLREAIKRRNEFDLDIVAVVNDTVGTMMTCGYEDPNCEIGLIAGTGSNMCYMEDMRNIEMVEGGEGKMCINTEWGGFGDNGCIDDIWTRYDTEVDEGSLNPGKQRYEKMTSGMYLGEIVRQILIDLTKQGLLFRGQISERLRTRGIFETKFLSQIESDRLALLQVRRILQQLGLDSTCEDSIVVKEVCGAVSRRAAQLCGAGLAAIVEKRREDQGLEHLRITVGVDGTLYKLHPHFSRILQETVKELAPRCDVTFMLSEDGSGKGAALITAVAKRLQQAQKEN

Caspase-3 = target: T3, Caspase-3 (Homo sapiens, UniProt P42574); test: inhibition of recombinant caspase-3 activity – biochemical, luminescence, set 2, selectivity assay for SENP protease inhibitor project, SAR follow-up (AID 588599); type: functional
T3 sequence (P42574 whole entry): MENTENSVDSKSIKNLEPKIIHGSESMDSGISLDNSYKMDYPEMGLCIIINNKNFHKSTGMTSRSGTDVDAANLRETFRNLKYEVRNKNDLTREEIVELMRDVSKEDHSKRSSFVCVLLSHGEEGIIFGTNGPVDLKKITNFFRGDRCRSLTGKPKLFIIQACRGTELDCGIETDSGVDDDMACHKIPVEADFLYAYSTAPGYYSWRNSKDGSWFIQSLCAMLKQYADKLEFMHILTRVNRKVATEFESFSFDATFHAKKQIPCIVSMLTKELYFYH

[9] = target: T4, Sentrin-specific protease 7 (Homo sapiens, UniProt Q9BQF6); test: inhibition of human SENP7 cleavage activity – biochemical, luminescence, set 2, SAR follow-up (AID 588600); type: functional
T4 sequence (Q9BQF6 whole entry): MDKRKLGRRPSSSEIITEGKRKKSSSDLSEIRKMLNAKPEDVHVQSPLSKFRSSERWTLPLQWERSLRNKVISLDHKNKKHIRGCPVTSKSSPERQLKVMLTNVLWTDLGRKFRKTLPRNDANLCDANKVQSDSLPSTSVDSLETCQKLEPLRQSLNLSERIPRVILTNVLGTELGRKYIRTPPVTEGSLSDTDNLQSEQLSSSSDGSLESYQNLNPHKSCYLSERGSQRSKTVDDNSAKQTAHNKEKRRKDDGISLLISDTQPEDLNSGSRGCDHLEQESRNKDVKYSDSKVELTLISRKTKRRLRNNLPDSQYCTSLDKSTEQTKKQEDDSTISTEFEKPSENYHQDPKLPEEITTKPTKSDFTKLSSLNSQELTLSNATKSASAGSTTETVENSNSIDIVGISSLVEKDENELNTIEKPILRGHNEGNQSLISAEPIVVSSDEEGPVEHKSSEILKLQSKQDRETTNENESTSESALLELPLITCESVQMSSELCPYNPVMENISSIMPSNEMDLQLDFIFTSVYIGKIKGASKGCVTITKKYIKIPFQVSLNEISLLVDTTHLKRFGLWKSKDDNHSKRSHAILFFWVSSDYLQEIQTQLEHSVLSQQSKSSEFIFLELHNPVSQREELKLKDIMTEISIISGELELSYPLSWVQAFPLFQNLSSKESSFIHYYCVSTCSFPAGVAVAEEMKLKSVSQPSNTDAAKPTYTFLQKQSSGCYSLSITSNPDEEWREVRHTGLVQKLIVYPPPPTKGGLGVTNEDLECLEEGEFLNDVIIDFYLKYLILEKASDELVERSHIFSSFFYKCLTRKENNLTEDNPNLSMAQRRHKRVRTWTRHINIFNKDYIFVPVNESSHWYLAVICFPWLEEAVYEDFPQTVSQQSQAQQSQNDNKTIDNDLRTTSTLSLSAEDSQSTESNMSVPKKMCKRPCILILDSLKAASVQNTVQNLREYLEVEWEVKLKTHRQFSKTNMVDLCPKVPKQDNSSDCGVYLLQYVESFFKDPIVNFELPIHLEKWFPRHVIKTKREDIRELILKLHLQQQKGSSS

[10] = target: T5, Sentrin-specific protease 8 (Homo sapiens, UniProt Q96LD8); test: inhibition of sentrin protease 8 – biochemical, luminescence, set 2, SAR follow-up (AID 588601); type: functional
T5 sequence (Q96LD8 whole entry): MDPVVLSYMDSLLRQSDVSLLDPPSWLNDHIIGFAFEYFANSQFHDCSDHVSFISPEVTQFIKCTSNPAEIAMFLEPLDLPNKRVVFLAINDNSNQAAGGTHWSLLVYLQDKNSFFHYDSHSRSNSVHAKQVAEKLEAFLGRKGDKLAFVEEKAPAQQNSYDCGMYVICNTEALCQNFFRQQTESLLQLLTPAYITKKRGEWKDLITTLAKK

[11] = target: T6, Sentrin-specific protease 6 (Homo sapiens, UniProt Q9GZR1); test: inhibition of human SENP6 catalytic domain – biochemical, luminescence, set 2, SAR follow-up (AID 588598); type: functional
T6 sequence (Q9GZR1 whole entry): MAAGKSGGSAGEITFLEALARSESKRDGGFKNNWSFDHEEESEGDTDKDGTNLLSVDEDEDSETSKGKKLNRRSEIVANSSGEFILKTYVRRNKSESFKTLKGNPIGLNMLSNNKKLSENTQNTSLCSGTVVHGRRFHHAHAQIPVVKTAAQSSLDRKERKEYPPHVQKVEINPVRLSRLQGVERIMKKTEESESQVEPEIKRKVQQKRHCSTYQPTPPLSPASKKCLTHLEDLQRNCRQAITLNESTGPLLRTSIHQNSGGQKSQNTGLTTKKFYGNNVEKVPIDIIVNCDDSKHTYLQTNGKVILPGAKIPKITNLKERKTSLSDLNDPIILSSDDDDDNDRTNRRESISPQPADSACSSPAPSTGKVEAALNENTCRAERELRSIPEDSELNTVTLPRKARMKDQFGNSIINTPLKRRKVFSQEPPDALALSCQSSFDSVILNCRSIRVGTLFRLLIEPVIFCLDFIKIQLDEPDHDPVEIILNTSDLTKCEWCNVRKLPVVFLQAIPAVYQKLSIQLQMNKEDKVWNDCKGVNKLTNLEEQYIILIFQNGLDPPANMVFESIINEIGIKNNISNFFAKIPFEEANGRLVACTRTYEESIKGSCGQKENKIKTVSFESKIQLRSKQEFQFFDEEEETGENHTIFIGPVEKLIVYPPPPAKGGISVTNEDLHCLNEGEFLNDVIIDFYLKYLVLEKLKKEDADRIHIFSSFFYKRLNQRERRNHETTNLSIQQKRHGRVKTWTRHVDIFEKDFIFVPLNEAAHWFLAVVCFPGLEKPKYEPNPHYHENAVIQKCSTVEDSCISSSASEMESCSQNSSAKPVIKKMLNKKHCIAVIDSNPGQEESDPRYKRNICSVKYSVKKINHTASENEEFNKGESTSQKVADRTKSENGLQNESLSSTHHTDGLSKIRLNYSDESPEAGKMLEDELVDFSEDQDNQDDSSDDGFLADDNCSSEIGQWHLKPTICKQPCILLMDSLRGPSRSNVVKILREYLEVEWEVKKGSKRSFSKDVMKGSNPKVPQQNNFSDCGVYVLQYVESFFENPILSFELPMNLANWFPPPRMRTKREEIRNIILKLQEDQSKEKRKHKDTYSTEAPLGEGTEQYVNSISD

[12] = HEK-293T viability loss after treatment – luminescence, T-cell screen hits, cytotoxicity control for TCR NF-kB inhibitor project, dose response (AID 489026); type: functional, cell-based;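 note: cells exposed to compound about 14 hours before the viability readout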
Phospholipase A2 = Phospholipase A2 (Homo sapiens, UniProt P04054); test: phospholipase A2 activity inhibition – biochemical, set 2, counter-screen for ATG4B inhibitor project, dose response (AID 588586); type: functional
Phospholipase A2, sequence (P04054 whole entry): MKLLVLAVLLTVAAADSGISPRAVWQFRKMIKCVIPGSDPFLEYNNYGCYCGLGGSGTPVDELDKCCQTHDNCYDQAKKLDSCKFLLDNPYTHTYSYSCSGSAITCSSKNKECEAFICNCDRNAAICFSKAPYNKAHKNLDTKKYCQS

Cysteine protease ATG4B = target: T7, Cysteine protease ATG4B (Homo sapiens, UniProt Q9Y4P1); test: autophagin-1 cysteine protease inhibition – biochemical, fluorescence, set 2, dose response (AID 588584); type: functional
T7 sequence (Q9Y4P1 whole entry): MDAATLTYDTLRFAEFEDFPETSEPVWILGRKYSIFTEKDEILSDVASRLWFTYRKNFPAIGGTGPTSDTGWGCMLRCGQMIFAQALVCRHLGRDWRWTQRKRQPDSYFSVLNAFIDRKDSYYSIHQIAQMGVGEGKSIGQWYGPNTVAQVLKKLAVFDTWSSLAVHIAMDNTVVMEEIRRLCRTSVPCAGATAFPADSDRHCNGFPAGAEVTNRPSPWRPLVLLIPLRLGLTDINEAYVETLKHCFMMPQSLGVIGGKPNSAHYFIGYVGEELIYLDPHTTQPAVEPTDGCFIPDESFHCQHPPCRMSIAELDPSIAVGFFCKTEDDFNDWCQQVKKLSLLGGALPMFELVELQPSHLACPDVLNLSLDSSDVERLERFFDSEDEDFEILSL

Which CC50 [1] does the source give for Cc1nc(Nc2ccc(Cl)cc2Cl)sc1C(=O)Nc1ccccc1 here?
Its CC50 is > 40 µM (active).

And the AC50 (Escherichia coli)?
Its AC50 is 56.1 µM (active).

What about the AC50 [2] of the same compound?
Its AC50 is 7.83 µM (active).

Which AC50 [3] does the source give for Cc1ccc(CNc2ncnc3ccc(-c4ccoc4C)cc23)o1 here?
The AC50 was 0.695 µM (active).

For O=C1C(=Cc2cccc(O)c2O)SC(=S)N1CCCN1CCOCC1, which CC50 [4] is on record?
The CC50 was 100 µM (active).

And the IC50 [5]?
Its IC50 is 45.5 µM (active).

And the IC50 [6]?
Its IC50 is > 80 µM (inactive).

What does the source list for O=C(COC(=O)c1cccnc1O)Nc1ccc(N2CCCCC2)cc1?
IC50 (Jurkat): 0.19 µM (active); AC50 [7]: 1.03 µM (active); IC50 [8]: > 80 µM (inactive)

Which IC50 (Hexokinase-1) does the source give for O=c1c2ccccc2nc(/C=C/c2ccncc2)n1Cc1ccccc1 here?
The IC50 was > 80 µM (inactive).

And the IC50 (Hexokinase HKDC1)?
Its IC50 is > 80 µM (inactive).

For COc1ccc(N2CC(C(=O)N/N=C/c3c[nH]c4ccccc34)CC2=O)cc1 (stereo not given), which IC50 (Caspase-3) is on record?
Its IC50 is > 99 µM (inactive).

And the IC50 [9]?
The IC50 was > 99 µM (inactive).

And the IC50 [10]?
The IC50 was > 99 µM (inactive).

And the IC50 [11]?
Its IC50 is > 99 µM (inactive).

Which IC50 [12] does the source give for CC1=Nc2ccccc2/C1=C\c1sc(Nc2ccc(C)cc2)nc1O here?
The IC50 was 45.8 µM (inactive).

What about the IC50 (Phospholipase A2) of the same compound?
The IC50 was 22.3 µM (inactive).

And the IC50 (Cysteine protease ATG4B)?
Its IC50 is 30.6 µM (inactive).

What about the AC50 [2] of the same compound?
The AC50 was 0.546 µM (active).

Reference: ChEMBL document CHEMBL1201862, “PubChem BioAssay data set” (2004)
